Experimental findings from PubChem BioAssay (NCI) are described below.

Among the test systems are NCI-H226 lung; RXF 393 renal; T-47D breast; MDA-MB-435; DU-145 prostate; SR leukemia; MDA-N; MDA-MB-231 breast; XF 498 CNS; KM20L2 colon; DLD-1 colon; SNB-78 CNS; HOP-18 NSCLC; DMS 273 small cell lung.
Common to all, as to test: inhibition of tumour cell growth, NCI panel, 48 h

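Step 1: Grow cells in 96-well plates. Step 2: Expose to compound for 48 hours at 5 concentrations. Step 3: Interpolate endpoints linearly; if unreached, use highest concentration. At the GI50, growth is halved. TGI: concentration producing complete growth inhibition.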

For `O=c1c2cc(S(=O)(=O)O)ccc2nc(COc2ccc(Oc3ccc(Cl)cc3Cl)cc2)n1C(=S)Nc1ccc(Cl)cc1`, the TGI in the assay on NCI-H226 lung is 42.4 µM; in the assay with RXF 393 renal, 31 µM; in the assay on T-47D breast, over 100 µM; with MDA-MB-435, 39.3 µM; with DU-145 prostate, 87 µM; in the assay on SR leukemia, 22.9 µM. For the same compound, the TGI in the assay on MDA-N turned out to be 51 µM.

Consider `c1c2c(cc3c1OCO3)-c1cc3ccc4c(c3c[n+]1CC2)OCO4`, for which the TGI was over 11.1 µM in the assay on NCI-H226 lung; over 12.5 µM with RXF 393 renal; over 12.5 µM in the assay with T-47D breast; 0.865 µM in the assay on MDA-MB-435; over 12.5 µM with DU-145 prostate; over 12.5 µM with SR leukemia. Also, the values for the TGI in the assay with MDA-N and in the assay on MDA-MB-231 breast were 0.595 µM and over 6.86 µM, respectively.

On to `CCSc1nc(-c2cccs2)nc2ccc(I)cc12`, for which the TGI in the assay on NCI-H226 lung is over 100 µM; in the assay on RXF 393 renal, over 100 µM; in the assay on T-47D breast, 6.88 µM; in the assay on MDA-MB-435 it was over 100 µM; in the assay with DU-145 prostate, over 100 µM; with SR leukemia it was over 100 µM. Besides, the TGI with MDA-N is over 100 µM.

`CNC(C)Cc1ccccc1OC` (stereo not given): the TGI in the assay with NCI-H226 lung, in the assay on XF 498 CNS, in the assay with KM20L2 colon, in the assay on RXF 393 renal, with DLD-1 colon and with SNB-78 CNS was over 100 µM in each case. The TGI in the assay on HOP-18 NSCLC and in the assay with DMS 273 small cell lung was over 100 µM throughout.

For the compound `CCCCCCCN(CCCCCCC)CC(O)c1cc2ccccc2c2cc(Br)ccc12` (stereo not given), the TGI is over 100 µM in the assay on T-47D breast; over 100 µM in the assay on MDA-MB-435; 38.8 µM in the assay on DU-145 prostate; over 100 µM in the assay on SR leukemia; over 100 µM in the assay on MDA-N; over 100 µM with MDA-MB-231 breast.

`NCCNCCNc1ccc(NCCNCCN)c2c1C(=O)c1c(O)ccc(O)c1C2=O`: the TGI in the assay with NCI-H226 lung is over 100 µM; with RXF 393 renal it was over 100 µM; in the assay on MDA-MB-435 it was over 100 µM; in the assay on DU-145 prostate, over 100 µM; in the assay on SR leukemia, 23.8 µM; in the assay with MDA-N, over 100 µM. The compound further yielded a TGI with MDA-MB-231 breast of over 100 µM.

In the case of `c1ccc([P+](c2ccccc2)(c2ccccc2)c2ccc(-c3ccc([P+](c4ccccc4)(c4ccccc4)c4ccccc4)cc3)cc2)cc1`, the TGI in the assay on NCI-H226 lung is 71 µM; in the assay with RXF 393 renal, over 100 µM; in the assay with T-47D breast, over 100 µM; in the assay on MDA-MB-435 it was 84.5 µM; with DU-145 prostate, over 100 µM; in the assay on MDA-N, 92.6 µM. Besides, the TGI in the assay on MDA-MB-231 breast turned out to be 63.5 µM.

For `O=C1OC2(OC2c2ccc(Cl)cc2)c2ccccc21` (stereo not given), the TGI in the assay with NCI-H226 lung, in the assay on XF 498 CNS, in the assay with KM20L2 colon, with RXF 393 renal, in the assay on DLD-1 colon and with SR leukemia was over 100 µM each time. Also, the TGI with DMS 273 small cell lung is over 100 µM.

As for `Nc1nc(OCC2CCCCC2)c2[nH]cnc2n1`, the TGI was 73.7 µM in the assay with NCI-H226 lung; 57.1 µM in the assay with RXF 393 renal; 30 µM with T-47D breast; 60.7 µM in the assay on MDA-MB-435; over 64.3 µM in the assay on DU-145 prostate; over 59.1 µM in the assay with SR leukemia. Besides, the TGI in the assay with MDA-N is 58.3 µM; in the assay on MDA-MB-231 breast, over 100 µM.

As to `CCOP(=O)(OCC)C(Nc1cccc(F)c1)c1ccc(N(C)C)cc1` (stereo not given), the TGI with NCI-H226 lung, with RXF 393 renal, with T-47D breast, in the assay with MDA-MB-435, with DU-145 prostate and in the assay with SR leukemia was over 100 µM each time. Moreover, the TGI in the assay on MDA-N and in the assay with MDA-MB-231 breast was over 100 µM in each case.

As for `CN(C)c1ccc(/C=c2/c3ccccc3n3c2cc(NC(=O)NCCC[N+](C)(C)C)[n+]3C)cc1`, the TGI in the assay with RXF 393 renal, in the assay with T-47D breast, with MDA-MB-435, in the assay with DU-145 prostate, in the assay on SR leukemia and with MDA-MB-231 breast was over 100 µM throughout.

As for `Cc1ccc([N+](=O)[O-])cc1S(=O)(=O)Nc1ccc(C2=NOC(c3ccccc3O)C2)cc1` (stereo not given), the TGI in the assay on NCI-H226 lung is over 100 µM; in the assay with RXF 393 renal, 11.1 µM; with T-47D breast it was over 100 µM; in the assay with MDA-MB-435 it was 3.22 µM; in the assay on DU-145 prostate, over 100 µM; in the assay on SR leukemia, 13.4 µM. The TGI in the assay with MDA-N was 4.17 µM; in the assay with MDA-MB-231 breast, over 100 µM.

Regarding `CO/N=C(\C)c1cccc(Nc2nc3ccccc3c3occc23)c1`, the TGI amounted to 7.38 µM in the assay with NCI-H226 lung; 27.2 µM with RXF 393 renal; 31.3 µM with T-47D breast; 25.4 µM with MDA-MB-435; 30.8 µM with DU-145 prostate; 34.2 µM with SR leukemia. Further, the values for the TGI in the assay with MDA-N and in the assay on MDA-MB-231 breast were 28.5 µM and 22.8 µM, respectively.

Take `CCc1ccc2c(c1)C(=O)c1c-2n(CCCN)c(=O)c2cc([N+](=O)[O-])ccc12`: the GI50 with T-47D breast was 1.28 µM; in the assay with MDA-MB-435 it was 1.56 µM; with DU-145 prostate, 0.775 µM; with MDA-MB-231 breast, 1.53 µM. The TGI with T-47D breast was 2.91 µM; in the assay with MDA-MB-435 it was 3 µM; in the assay on DU-145 prostate, 2.05 µM; in the assay with MDA-MB-231 breast, 2.98 µM.

For `CCO[C@]12CCC[C@H]1[C@@H]1C(=O)c3ccccc3C(=O)C1=C(C)O2`, the TGI was 56.4 µM with RXF 393 renal; over 100 µM in the assay with T-47D breast; over 100 µM with MDA-MB-435; over 100 µM in the assay on DU-145 prostate; 59.1 µM in the assay on SR leukemia; 43 µM in the assay with MDA-N. In the assay on MDA-MB-231 breast, the TGI was over 100 µM.
